# Assay results taken from the kinase profiling compilation of Christmann-Franck et al. (2016).
# Tests used:
# Experiment in all cases: KINOMEscan competition binding
# Conditions in all cases: compound 10.0 µM
# ACVRL1 (human) = ACVRL1 (human) (UniProt P37023)
# ADCK3 (human) = ADCK3 (human) (UniProt Q8NI60)
# AKT2 (human) = AKT2 (human) (UniProt P31751)
# BTK (human) = BTK (human) (UniProt Q06187)
# CAMK1D (human) = CAMK1D (human) (UniProt Q8IU85)
# CAMK2A (human) = CAMK2A (human) (UniProt Q9UQM7)
# CAMK4 (human) = CAMK4 (human) (UniProt Q16566)
# CDKL5 (human) = CDKL5 (human) (UniProt O76039)
# CLK1 (human) = CLK1 (human) (UniProt P49759)
# CLK4 (human) = CLK4 (human) (UniProt Q9HAZ1)
# [1] = test system: EGFR (human), P00533 [G719C]
# EPHB6 (human) = EPHB6 (human) (UniProt O15197)
# FRK (human) = FRK (human) (UniProt P42685)
# GRK1 (human) = GRK1 (human) (UniProt Q15835)
# HIPK2 (human) = HIPK2 (human) (UniProt Q9H2X6)
# MAP2K4 (human) = MAP2K4 (human) (UniProt P45985)
# MAP3K5 (human) = MAP3K5 (human) (UniProt Q99683)
# MAPK10 (human) = MAPK10 (human) (UniProt P53779)
# MAPK4 (human) = MAPK4 (human) (UniProt P31152)
# MAPK8 (human) = MAPK8 (human) (UniProt P45983)
# MAPK9 (human) = MAPK9 (human) (UniProt P45984)
# [2] = test system: MET (human), P08581 [M1250T]
# MUSK (human) = MUSK (human) (UniProt O15146)
# PAK6 (human) = PAK6 (human) (UniProt Q9NQU5)
# PHKG1 (human) = PHKG1 (human) (UniProt Q16816)
# PI4KB (human) = PI4KB (human) (UniProt Q9UBF8)
# PIK3C2B (human) = PIK3C2B (human) (UniProt O00750)
# PKN2 (human) = PKN2 (human) (UniProt Q16513)
# PRKCH (human) = PRKCH (human) (UniProt P24723)
# PRKCQ (human) = PRKCQ (human) (UniProt Q04759)
# PRKX (human) = PRKX (human) (UniProt P51817)
# PRPF4B (human) = PRPF4B (human) (UniProt Q13523)
# RET (human) = RET (human) (UniProt P07949)
# ROCK1 (human) = ROCK1 (human) (UniProt Q13464)
# SRC (human) = SRC (human) (UniProt P12931)
# STK11 (human) = STK11 (human) (UniProt Q15831)
# STK17A (human) = STK17A (human) (UniProt Q9UEE5)
# TIE1 (human) = TIE1 (human) (UniProt P35590)
# TRPM6 (human) = TRPM6 (human) (UniProt Q9BX84)
# TTK (human) = TTK (human) (UniProt P33981)
# ZAP70 (human) = ZAP70 (human) (UniProt P43403)
# Chain of ACVRL1 (human) (P37023 whole entry, looked up): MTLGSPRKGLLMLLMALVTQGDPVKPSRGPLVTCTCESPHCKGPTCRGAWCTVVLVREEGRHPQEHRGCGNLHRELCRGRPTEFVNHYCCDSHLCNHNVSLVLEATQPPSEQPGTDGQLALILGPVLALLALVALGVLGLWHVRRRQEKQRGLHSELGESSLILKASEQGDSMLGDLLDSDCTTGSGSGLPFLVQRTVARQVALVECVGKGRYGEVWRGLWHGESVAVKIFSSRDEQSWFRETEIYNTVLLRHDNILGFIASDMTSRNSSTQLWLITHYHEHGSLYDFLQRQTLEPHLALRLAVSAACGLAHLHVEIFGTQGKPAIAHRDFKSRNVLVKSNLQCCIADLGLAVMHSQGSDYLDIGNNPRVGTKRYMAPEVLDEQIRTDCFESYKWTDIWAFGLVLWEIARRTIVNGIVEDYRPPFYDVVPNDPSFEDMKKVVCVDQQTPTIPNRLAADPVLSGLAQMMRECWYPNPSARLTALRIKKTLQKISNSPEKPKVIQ
# Chain of FRK (human) (P42685 whole entry, looked up): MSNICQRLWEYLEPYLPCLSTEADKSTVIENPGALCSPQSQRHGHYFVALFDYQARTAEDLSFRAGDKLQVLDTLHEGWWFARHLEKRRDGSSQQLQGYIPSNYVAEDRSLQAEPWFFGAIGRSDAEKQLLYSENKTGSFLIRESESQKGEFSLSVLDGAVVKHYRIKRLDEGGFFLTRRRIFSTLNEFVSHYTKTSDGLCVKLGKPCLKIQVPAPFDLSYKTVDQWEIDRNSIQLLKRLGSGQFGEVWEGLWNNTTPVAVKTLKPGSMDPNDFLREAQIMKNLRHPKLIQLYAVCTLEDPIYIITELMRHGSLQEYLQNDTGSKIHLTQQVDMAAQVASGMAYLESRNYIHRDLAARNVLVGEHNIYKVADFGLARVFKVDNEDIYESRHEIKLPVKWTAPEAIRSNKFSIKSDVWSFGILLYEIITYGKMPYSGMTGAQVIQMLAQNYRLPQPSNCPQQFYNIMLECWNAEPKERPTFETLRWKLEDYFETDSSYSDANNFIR
# Chain of STK17A (human) (Q9UEE5 whole entry, looked up): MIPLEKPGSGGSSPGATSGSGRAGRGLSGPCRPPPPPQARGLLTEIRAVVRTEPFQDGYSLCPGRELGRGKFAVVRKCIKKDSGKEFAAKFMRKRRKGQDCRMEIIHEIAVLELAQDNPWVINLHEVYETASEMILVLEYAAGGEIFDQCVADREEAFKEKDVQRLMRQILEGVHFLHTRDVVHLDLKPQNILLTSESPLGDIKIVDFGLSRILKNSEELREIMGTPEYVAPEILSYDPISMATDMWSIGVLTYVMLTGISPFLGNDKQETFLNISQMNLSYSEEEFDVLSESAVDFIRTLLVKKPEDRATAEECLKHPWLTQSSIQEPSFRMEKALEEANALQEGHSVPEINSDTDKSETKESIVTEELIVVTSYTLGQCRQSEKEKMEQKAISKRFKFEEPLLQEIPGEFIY
# Chain of TIE1 (human) (P35590 whole entry, looked up): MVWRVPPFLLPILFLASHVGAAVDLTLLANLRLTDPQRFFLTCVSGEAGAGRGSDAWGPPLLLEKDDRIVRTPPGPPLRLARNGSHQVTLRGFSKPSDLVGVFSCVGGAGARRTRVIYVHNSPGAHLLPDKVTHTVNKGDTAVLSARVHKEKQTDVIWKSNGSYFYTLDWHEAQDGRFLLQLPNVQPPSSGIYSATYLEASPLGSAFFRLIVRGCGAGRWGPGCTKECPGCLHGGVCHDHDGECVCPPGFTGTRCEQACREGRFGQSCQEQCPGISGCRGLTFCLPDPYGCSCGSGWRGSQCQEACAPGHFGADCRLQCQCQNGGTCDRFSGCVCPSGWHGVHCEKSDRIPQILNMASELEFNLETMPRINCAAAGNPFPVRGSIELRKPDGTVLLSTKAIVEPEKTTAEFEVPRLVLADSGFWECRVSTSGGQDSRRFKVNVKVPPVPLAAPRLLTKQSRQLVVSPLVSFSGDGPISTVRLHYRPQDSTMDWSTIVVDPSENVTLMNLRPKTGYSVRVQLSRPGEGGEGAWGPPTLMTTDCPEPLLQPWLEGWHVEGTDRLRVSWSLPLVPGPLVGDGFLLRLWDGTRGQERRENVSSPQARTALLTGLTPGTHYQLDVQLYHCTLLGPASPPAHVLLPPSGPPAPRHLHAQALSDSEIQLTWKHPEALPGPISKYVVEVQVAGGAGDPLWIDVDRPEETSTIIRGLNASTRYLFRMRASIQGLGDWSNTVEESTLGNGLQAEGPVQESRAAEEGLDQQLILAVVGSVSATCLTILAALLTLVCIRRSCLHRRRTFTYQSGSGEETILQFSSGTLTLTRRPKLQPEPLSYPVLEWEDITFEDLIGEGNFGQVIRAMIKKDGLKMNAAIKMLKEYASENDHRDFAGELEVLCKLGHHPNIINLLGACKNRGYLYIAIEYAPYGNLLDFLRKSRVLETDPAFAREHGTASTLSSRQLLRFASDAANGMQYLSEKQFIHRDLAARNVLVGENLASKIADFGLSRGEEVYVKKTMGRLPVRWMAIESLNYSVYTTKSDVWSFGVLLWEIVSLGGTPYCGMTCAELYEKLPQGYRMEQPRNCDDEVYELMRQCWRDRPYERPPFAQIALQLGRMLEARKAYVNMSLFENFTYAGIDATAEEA
# Chain of MAP3K5 (human) (Q99683 whole entry, looked up): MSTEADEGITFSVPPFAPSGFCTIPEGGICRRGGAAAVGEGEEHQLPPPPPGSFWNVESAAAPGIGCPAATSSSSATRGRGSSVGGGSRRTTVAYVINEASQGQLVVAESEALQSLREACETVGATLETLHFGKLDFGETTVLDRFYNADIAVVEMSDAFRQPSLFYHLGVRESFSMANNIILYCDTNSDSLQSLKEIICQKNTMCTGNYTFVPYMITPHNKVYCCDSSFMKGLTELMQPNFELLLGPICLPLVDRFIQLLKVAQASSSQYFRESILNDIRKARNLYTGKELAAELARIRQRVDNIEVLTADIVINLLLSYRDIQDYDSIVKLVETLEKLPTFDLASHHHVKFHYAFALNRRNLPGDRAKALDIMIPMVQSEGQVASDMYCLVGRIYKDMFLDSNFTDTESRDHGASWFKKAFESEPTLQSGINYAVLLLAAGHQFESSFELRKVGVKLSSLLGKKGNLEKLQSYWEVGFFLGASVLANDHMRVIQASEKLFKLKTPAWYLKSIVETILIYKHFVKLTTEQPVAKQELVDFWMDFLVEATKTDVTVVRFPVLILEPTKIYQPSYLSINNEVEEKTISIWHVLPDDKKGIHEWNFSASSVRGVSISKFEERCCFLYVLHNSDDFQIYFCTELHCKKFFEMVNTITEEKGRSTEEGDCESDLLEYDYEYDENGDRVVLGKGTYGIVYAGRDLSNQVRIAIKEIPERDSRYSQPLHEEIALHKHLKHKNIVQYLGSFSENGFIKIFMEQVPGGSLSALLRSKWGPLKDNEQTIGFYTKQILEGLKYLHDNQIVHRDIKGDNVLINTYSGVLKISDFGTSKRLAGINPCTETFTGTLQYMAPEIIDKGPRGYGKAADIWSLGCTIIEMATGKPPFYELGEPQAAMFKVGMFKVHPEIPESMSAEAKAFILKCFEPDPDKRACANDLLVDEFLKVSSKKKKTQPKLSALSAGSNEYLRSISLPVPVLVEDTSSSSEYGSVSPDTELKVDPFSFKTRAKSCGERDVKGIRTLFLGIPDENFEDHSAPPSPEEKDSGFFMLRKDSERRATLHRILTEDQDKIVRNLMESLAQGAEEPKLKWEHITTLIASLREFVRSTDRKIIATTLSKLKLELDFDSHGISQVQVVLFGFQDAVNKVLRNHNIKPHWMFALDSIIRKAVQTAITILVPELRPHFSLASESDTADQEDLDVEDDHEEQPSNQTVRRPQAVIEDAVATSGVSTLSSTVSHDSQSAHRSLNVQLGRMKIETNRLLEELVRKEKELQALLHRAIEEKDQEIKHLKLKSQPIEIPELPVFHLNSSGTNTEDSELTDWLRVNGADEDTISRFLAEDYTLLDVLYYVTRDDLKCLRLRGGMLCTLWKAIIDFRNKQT
# Chain of MAPK4 (human) (P31152 whole entry, looked up): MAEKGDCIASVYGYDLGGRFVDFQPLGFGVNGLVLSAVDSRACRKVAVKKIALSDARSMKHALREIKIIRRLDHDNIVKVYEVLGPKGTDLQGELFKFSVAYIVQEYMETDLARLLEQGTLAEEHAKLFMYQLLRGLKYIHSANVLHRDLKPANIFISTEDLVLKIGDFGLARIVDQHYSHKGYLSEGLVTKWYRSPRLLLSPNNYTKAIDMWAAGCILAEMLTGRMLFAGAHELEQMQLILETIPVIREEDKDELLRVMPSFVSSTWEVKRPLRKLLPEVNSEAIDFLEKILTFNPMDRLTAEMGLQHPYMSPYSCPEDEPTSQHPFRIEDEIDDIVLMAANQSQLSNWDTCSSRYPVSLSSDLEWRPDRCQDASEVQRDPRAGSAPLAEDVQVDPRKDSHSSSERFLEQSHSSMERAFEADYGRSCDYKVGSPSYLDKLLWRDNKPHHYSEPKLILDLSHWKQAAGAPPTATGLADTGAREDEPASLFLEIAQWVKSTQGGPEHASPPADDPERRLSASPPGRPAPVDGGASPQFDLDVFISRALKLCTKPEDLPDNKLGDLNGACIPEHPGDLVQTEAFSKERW
# Chain of CLK1 (human) (P49759 whole entry, looked up): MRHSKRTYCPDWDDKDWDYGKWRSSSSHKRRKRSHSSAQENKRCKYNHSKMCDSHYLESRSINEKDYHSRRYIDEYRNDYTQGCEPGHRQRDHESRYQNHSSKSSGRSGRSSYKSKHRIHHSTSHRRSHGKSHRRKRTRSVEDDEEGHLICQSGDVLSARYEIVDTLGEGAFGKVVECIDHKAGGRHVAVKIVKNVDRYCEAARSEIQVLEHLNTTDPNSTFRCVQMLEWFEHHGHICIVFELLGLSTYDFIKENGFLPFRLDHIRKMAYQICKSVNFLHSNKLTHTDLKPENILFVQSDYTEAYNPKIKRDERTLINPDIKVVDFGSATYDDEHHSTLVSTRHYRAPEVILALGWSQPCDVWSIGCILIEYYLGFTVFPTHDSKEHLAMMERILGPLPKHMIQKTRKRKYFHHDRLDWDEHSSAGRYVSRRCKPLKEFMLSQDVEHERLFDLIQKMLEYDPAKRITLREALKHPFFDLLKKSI
smiles,measurement,setting,value
C=CC(=O)Nc1ccc(C(=O)c2sc(Nc3ccc(N4CCN(C)CC4)cc3OC)nc2N)cc1,"kinase still bound, per cent of control",ACVRL1 (human),100%
same,"kinase still bound, per cent of control",ADCK3 (human),42%
same,"kinase still bound, per cent of control",AKT2 (human),100%
same,"kinase still bound, per cent of control",BTK (human),94%
same,"kinase still bound, per cent of control",CAMK1D (human),0.55%
same,"kinase still bound, per cent of control",CAMK2A (human),1.2%
same,"kinase still bound, per cent of control",CAMK4 (human),100%
same,"kinase still bound, per cent of control",CDKL5 (human),74%
same,"kinase still bound, per cent of control",CLK1 (human),0.55%
same,"kinase still bound, per cent of control",CLK4 (human),1.6%
same,"kinase still bound, per cent of control",[1],3%
same,"kinase still bound, per cent of control",EPHB6 (human),64%
same,"kinase still bound, per cent of control",FRK (human),48%
same,"kinase still bound, per cent of control",GRK1 (human),100%
same,"kinase still bound, per cent of control",HIPK2 (human),40%
same,"kinase still bound, per cent of control",MAP2K4 (human),24%
same,"kinase still bound, per cent of control",MAP3K5 (human),100%
same,"kinase still bound, per cent of control",MAPK10 (human),6.4%
same,"kinase still bound, per cent of control",MAPK4 (human),100%
same,"kinase still bound, per cent of control",MAPK8 (human),4.2%
same,"kinase still bound, per cent of control",MAPK9 (human),7%
same,"kinase still bound, per cent of control",[2],91%
same,"kinase still bound, per cent of control",MUSK (human),100%
same,"kinase still bound, per cent of control",PAK6 (human),40%
same,"kinase still bound, per cent of control",PHKG1 (human),7.4%
same,"kinase still bound, per cent of control",PI4KB (human),18%
same,"kinase still bound, per cent of control",PIK3C2B (human),100%
same,"kinase still bound, per cent of control",PKN2 (human),100%
same,"kinase still bound, per cent of control",PRKCH (human),100%
same,"kinase still bound, per cent of control",PRKCQ (human),93%
same,"kinase still bound, per cent of control",PRKX (human),99%
same,"kinase still bound, per cent of control",PRPF4B (human),100%
same,"kinase still bound, per cent of control",RET (human),100%
same,"kinase still bound, per cent of control",ROCK1 (human),42%
same,"kinase still bound, per cent of control",SRC (human),100%
same,"kinase still bound, per cent of control",STK11 (human),86%
same,"kinase still bound, per cent of control",STK17A (human),100%
same,"kinase still bound, per cent of control",TIE1 (human),67%
same,"kinase still bound, per cent of control",TRPM6 (human),35%
same,"kinase still bound, per cent of control",TTK (human),0.7%
same,"kinase still bound, per cent of control",ZAP70 (human),20%
CC1=C(C(=O)Nc2cc3cn[nH]c3cc2F)C(c2ccc(C(F)(F)F)cc2)CC(=O)N1 (stereo not drawn),"kinase still bound, per cent of control",ACVRL1 (human),100%
same,"kinase still bound, per cent of control",ADCK3 (human),76%
same,"kinase still bound, per cent of control",AKT2 (human),64%
same,"kinase still bound, per cent of control",BTK (human),14%
same,"kinase still bound, per cent of control",CAMK1D (human),97%
same,"kinase still bound, per cent of control",CAMK2A (human),100%
same,"kinase still bound, per cent of control",CAMK4 (human),100%
same,"kinase still bound, per cent of control",CDKL5 (human),45%
same,"kinase still bound, per cent of control",CLK1 (human),72%
same,"kinase still bound, per cent of control",CLK4 (human),100%
same,"kinase still bound, per cent of control",[1],37%
same,"kinase still bound, per cent of control",EPHB6 (human),68%
same,"kinase still bound, per cent of control",FRK (human),53%
same,"kinase still bound, per cent of control",GRK1 (human),78%
same,"kinase still bound, per cent of control",HIPK2 (human),87%
same,"kinase still bound, per cent of control",MAP2K4 (human),71%
same,"kinase still bound, per cent of control",MAP3K5 (human),100%
same,"kinase still bound, per cent of control",MAPK10 (human),88%
same,"kinase still bound, per cent of control",MAPK4 (human),100%
same,"kinase still bound, per cent of control",MAPK8 (human),85%
same,"kinase still bound, per cent of control",MAPK9 (human),92%
same,"kinase still bound, per cent of control",[2],23%
same,"kinase still bound, per cent of control",MUSK (human),95%
same,"kinase still bound, per cent of control",PAK6 (human),90%
same,"kinase still bound, per cent of control",PHKG1 (human),100%
same,"kinase still bound, per cent of control",PI4KB (human),100%
same,"kinase still bound, per cent of control",PIK3C2B (human),100%
same,"kinase still bound, per cent of control",PKN2 (human),52%
same,"kinase still bound, per cent of control",PRKCH (human),35%
same,"kinase still bound, per cent of control",PRKCQ (human),54%
same,"kinase still bound, per cent of control",PRKX (human),14%
same,"kinase still bound, per cent of control",PRPF4B (human),86%
same,"kinase still bound, per cent of control",RET (human),20%
same,"kinase still bound, per cent of control",ROCK1 (human),0.3%
same,"kinase still bound, per cent of control",SRC (human),83%
same,"kinase still bound, per cent of control",STK11 (human),100%
same,"kinase still bound, per cent of control",STK17A (human),95%
same,"kinase still bound, per cent of control",TIE1 (human),75%
same,"kinase still bound, per cent of control",TRPM6 (human),70%
same,"kinase still bound, per cent of control",TTK (human),100%
same,"kinase still bound, per cent of control",ZAP70 (human),100%
COc1cc2ncnc(Nc3cccc(Cl)c3)c2cc1OC,"kinase still bound, per cent of control",ACVRL1 (human),100%
same,"kinase still bound, per cent of control",ADCK3 (human),56%
same,"kinase still bound, per cent of control",AKT2 (human),100%
same,"kinase still bound, per cent of control",BTK (human),70%
same,"kinase still bound, per cent of control",CAMK1D (human),83%
same,"kinase still bound, per cent of control",CAMK2A (human),62%
same,"kinase still bound, per cent of control",CAMK4 (human),100%
same,"kinase still bound, per cent of control",CDKL5 (human),97%
same,"kinase still bound, per cent of control",CLK1 (human),59%
same,"kinase still bound, per cent of control",CLK4 (human),37%
same,"kinase still bound, per cent of control",[1],0.1%
same,"kinase still bound, per cent of control",EPHB6 (human),16%
same,"kinase still bound, per cent of control",FRK (human),29%
same,"kinase still bound, per cent of control",GRK1 (human),100%
same,"kinase still bound, per cent of control",HIPK2 (human),80%
same,"kinase still bound, per cent of control",MAP2K4 (human),85%
same,"kinase still bound, per cent of control",MAP3K5 (human),74%
same,"kinase still bound, per cent of control",MAPK10 (human),9.8%
same,"kinase still bound, per cent of control",MAPK4 (human),16%
same,"kinase still bound, per cent of control",MAPK8 (human),38%
same,"kinase still bound, per cent of control",MAPK9 (human),18%
same,"kinase still bound, per cent of control",[2],94%
same,"kinase still bound, per cent of control",MUSK (human),100%
same,"kinase still bound, per cent of control",PAK6 (human),94%
same,"kinase still bound, per cent of control",PHKG1 (human),67%
same,"kinase still bound, per cent of control",PI4KB (human),44%
same,"kinase still bound, per cent of control",PIK3C2B (human),7.6%
same,"kinase still bound, per cent of control",PKN2 (human),59%
same,"kinase still bound, per cent of control",PRKCH (human),100%
same,"kinase still bound, per cent of control",PRKCQ (human),100%
same,"kinase still bound, per cent of control",PRKX (human),100%
same,"kinase still bound, per cent of control",PRPF4B (human),84%
same,"kinase still bound, per cent of control",RET (human),7%
same,"kinase still bound, per cent of control",ROCK1 (human),41%
same,"kinase still bound, per cent of control",SRC (human),9.9%
same,"kinase still bound, per cent of control",STK11 (human),86%
same,"kinase still bound, per cent of control",STK17A (human),19%
same,"kinase still bound, per cent of control",TIE1 (human),71%
same,"kinase still bound, per cent of control",TRPM6 (human),77%
same,"kinase still bound, per cent of control",TTK (human),61%
same,"kinase still bound, per cent of control",ZAP70 (human),78%
